This passage reports IC50 and Ki results from ChEMBL document CHEMBL1909046, “DrugMatrix in vitro pharmacology data”.

For data set [1], the target named is cGMP-specific 3',5'-cyclic phosphodiesterase (Homo sapiens, UniProt O76074). Description: DRUGMATRIX: Phosphodiesterase PDE5 enzyme inhibition (substrate: [3H]cGMP + cGMP). The data set is classed as tissue-based, Platelet. As to conditions: platelet; Not Active = under 50% inhibition at 10 µM.
Data set [2] addresses Platelet-activating factor receptor (Homo sapiens, UniProt P25105). The data set is classed as tissue-based.
Data set [3] addresses Voltage-gated inwardly rectifying potassium channel KCNH2 (Homo sapiens, UniProt Q12809). The settings on record: hek293.
A further data set addresses Melanocortin receptor 5 (Homo sapiens, UniProt P33032). The data set is classed as cell membranes, HEK293, Membrane.
Data set [4] is described as follows: DRUGMATRIX: GABAA, Muscimol, Central radioligand binding (ligand: [3H] Muscimol). The data set is classed as cell membranes, Rattus norvegicus, Wistar, Brain, Membrane. The settings on record: Not Active = under 50% inhibition at 10 µM.
Data set [5] can be described thus: DRUGMATRIX: Glutamate, NMDA, Agonism radioligand binding (ligand: [3H] CGP-39653). The data set is classed as cell membranes, Rattus norvegicus, Wistar, Cerebral cortex, Membrane. The settings on record: Not Active = under 50% inhibition at 10 µM.
The target of the next data set is T1, Progesterone receptor (Bos taurus, UniProt Q690N0).
T1 sequence (Q690N0 whole entry): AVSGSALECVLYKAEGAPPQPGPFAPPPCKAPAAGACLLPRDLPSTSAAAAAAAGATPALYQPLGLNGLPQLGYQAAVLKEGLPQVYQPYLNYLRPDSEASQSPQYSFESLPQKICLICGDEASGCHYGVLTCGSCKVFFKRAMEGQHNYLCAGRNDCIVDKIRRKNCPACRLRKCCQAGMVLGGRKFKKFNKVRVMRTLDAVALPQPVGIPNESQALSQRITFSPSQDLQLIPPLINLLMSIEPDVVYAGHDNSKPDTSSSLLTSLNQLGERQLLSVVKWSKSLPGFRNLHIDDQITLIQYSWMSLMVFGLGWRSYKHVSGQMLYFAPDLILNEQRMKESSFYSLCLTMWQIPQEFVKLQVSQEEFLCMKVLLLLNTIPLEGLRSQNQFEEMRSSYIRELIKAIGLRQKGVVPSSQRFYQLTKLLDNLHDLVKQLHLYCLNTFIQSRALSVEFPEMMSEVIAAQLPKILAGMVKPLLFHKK
The data set can be described thus: DRUGMATRIX: Progesterone radioligand binding (ligand: [3H] R-5020). The data set is classed as tissue-based, Uterus. The settings on record: Not Active = under 50% inhibition at 10 µM.

In data set [6] the target is T2, Alpha-1A adrenergic receptor (Rattus norvegicus, UniProt P43140).
T2 sequence (P43140 whole entry): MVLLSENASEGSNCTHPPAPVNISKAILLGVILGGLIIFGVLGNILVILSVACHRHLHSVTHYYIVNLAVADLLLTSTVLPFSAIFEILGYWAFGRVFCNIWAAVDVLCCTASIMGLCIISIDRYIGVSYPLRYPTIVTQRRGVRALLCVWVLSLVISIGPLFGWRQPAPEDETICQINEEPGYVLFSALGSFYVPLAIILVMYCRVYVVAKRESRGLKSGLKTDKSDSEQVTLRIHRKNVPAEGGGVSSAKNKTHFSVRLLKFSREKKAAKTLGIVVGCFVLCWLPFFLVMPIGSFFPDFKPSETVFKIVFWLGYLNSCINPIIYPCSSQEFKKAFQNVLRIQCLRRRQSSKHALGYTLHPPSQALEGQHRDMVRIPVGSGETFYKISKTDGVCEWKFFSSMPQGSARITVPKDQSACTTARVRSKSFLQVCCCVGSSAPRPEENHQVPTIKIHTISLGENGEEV
Description: DRUGMATRIX: Alpha-1A adrenergic receptor radioligand binding (ligand: prazosin). The data set is classed as cell membranes, Wistar, Submaxillary gland, Membrane. The settings on record: Not Active = under 50% inhibition at 10 µM.

As usually defined, the IC50 is the point on the concentration scale where inhibition reaches its midpoint. The Ki is a dissociation constant, usually derived from enzyme kinetics or from competition with a known ligand.

Sequence of Voltage-gated inwardly rectifying potassium channel KCNH2 (Q12809 whole entry): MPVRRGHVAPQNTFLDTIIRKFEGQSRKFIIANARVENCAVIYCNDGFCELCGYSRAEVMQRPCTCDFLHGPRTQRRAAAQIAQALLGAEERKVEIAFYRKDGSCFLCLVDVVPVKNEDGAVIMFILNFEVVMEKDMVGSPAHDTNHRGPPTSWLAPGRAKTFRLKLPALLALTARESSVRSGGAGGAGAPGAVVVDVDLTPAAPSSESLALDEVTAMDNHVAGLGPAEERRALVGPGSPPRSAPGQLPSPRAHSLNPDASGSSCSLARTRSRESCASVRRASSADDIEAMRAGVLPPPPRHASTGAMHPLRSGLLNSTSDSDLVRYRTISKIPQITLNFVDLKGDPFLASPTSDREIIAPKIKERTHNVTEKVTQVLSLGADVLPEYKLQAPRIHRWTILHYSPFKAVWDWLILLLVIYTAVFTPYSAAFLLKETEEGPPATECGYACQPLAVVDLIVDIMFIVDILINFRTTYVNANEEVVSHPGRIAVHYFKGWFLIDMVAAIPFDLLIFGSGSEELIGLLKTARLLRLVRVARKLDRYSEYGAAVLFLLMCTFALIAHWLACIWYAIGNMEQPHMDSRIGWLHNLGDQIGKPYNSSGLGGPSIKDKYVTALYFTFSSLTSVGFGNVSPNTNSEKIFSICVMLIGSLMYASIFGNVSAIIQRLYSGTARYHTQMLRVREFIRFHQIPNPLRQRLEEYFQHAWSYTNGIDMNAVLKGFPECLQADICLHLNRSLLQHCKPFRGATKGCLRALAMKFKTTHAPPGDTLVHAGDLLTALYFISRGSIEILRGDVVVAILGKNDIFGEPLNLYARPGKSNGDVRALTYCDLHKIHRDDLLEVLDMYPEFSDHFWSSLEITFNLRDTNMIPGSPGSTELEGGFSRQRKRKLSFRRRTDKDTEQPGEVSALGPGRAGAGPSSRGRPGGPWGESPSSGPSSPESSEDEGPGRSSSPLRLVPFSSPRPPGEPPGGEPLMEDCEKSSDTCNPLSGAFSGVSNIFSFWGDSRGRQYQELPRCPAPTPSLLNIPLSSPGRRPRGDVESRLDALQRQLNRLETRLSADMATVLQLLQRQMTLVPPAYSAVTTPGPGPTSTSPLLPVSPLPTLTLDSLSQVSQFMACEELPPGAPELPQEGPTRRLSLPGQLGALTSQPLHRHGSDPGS
Sequence of Platelet-activating factor receptor (P25105 whole entry): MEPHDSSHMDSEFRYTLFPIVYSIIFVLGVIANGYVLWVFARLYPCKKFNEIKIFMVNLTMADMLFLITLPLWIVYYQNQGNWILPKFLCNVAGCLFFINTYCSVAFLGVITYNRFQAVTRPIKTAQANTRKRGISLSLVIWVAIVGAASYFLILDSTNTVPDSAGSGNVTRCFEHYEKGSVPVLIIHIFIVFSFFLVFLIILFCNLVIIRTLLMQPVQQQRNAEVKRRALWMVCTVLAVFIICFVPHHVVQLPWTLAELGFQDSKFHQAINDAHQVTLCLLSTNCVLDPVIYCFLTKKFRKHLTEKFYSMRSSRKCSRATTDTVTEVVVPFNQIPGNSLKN
Sequence of Melanocortin receptor 5 (P33032 whole entry): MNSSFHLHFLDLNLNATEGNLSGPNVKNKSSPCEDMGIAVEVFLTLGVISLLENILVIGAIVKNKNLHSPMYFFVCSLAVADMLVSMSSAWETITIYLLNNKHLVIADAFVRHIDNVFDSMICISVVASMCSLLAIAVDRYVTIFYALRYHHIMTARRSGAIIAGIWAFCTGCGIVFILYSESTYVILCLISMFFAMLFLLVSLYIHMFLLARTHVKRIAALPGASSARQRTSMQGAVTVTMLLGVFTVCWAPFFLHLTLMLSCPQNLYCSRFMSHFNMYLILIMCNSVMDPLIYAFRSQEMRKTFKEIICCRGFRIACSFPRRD

In the case of `ClC1=C(Cl)[C@]2(Cl)[C@@H]3[C@@H]4C[C@@H]([C@H]5O[C@@H]45)[C@@H]3[C@@]1(Cl)C2(Cl)Cl` [DIELDRIN], the IC50 entry (in data set [1]; in data set [2]; in data set [3]; on Melanocortin receptor 5 (hek293); in data set [4]; in data set [5]) was “Not Active” each time. Besides, the 50% inhibitory concentration (IC50) entry (on Progesterone receptor; in data set [6]) was “Not Active” in each case. Besides, the Ki entry in data set [3], in data set [4] and in data set [5] was “Not Active” each time.

`CC1(COc2ccc(CC3SC(=O)NC3=O)cc2)CCCCC1` (stereo not drawn) [CIGLITAZONE]: the IC50 entry in data set [1] was “Not Active”; in data set [2], “Not Active”; in data set [3], “Not Active”; on Melanocortin receptor 5 (read-out: IC50), 28.6 µM; in data set [4], “Not Active”; in data set [5], “Not Active”. For the same compound, the results for the IC50 (at Progesterone receptor (read-out: IC50); in data set [6]) were 29.1 µM and “Not Active”, respectively. Besides, the inhibitory constant (Ki) entry in data set [3] was “Not Active”; at Melanocortin receptor 5 (read-out: Ki), 26.8 µM; in data set [4], “Not Active”; in data set [5], “Not Active”; on Progesterone receptor (read-out: Ki), 3.8 µM.

For `OC[C@H]1O[C@@H]2O[C@H]3[C@H](O)[C@@H](O)[C@@H](O[C@H]4[C@H](O)[C@@H](O)[C@@H](O[C@H]5[C@H](O)[C@@H](O)[C@@H](O[C@H]6[C@H](O)[C@@H](O)[C@@H](O[C@H]7[C@H](O)[C@@H](O)[C@@H](O[C@H]8[C@H](O)[C@@H](O)[C@@H](O[C@H]1[C@H](O)[C@H]2O)O[C@@H]8CO)O[C@@H]7CO)O[C@@H]6CO)O[C@@H]5CO)O[C@@H]4CO)O[C@@H]3CO` [BETADEX], the half-inhibitory concentration (IC50) result (in data set [1]; in data set [2]; in data set [3]; against Melanocortin receptor 5 (hek293); in data set [4]; in data set [5]) was “Not Active” each time. The half-maximal inhibitory concentration (IC50) entry (at Progesterone receptor; in data set [6]) was “Not Active” throughout. Besides, the inhibition constant Ki entry in data set [3], in data set [4] and in data set [5] was “Not Active” throughout.

`COC(=O)Nc1nc2ccc(Sc3ccccc3)cc2[nH]1` [FENBENDAZOLE]: the 50% inhibitory concentration (IC50) result (in data set [1]; in data set [2]; in data set [3]; on Melanocortin receptor 5 (hek293); in data set [4]; in data set [5]) was “Not Active” in each case. The concentration for half-maximal inhibition (IC50) entry (on Progesterone receptor; in data set [6]) was “Not Active” in each case. In addition, the Ki result in data set [3], in data set [4] and in data set [5] was “Not Active” each time.

Consider `C=CCO` [ALLYL ALCOHOL], for which the IC50 entry (in data set [1]; in data set [2]; in data set [3]; at Melanocortin receptor 5 (hek293); in data set [4]; in data set [5]) was “Not Active” in each case. Further, the IC50 result (on Progesterone receptor; in data set [6]) was “Not Active” throughout. Further, the inhibition constant Ki result in data set [3], in data set [4] and in data set [5] was “Not Active” each time.

In the case of CARBOXYMETHYLCELLULOSE, the half-maximal inhibitory concentration (IC50) result (in data set [1]; in data set [2]; in data set [3]; against Melanocortin receptor 5 (hek293); in data set [4]; in data set [5]) was “Not Active” each time. In addition, the IC50 entry (on Progesterone receptor; in data set [6]) was “Not Active” throughout. In addition, the inhibitory constant (Ki) result (in data set [1]; in data set [2]; in data set [3]; at Melanocortin receptor 5 (hek293); in data set [4]; in data set [5]) was “Not Active” throughout. In addition, the inhibition constant Ki result (on Progesterone receptor; in data set [6]) was “Not Active” throughout.

Take `C=CCN1CC[C@]23c4c5ccc(O)c4O[C@H]2/C(=N/N=C2\CC[C@@]4(O)[C@H]6Cc7ccc(O)c8c7[C@@]4(CCN6CC=C)[C@H]2O8)CC[C@@]3(O)[C@H]1C5` [NALOXONAZINE]: the IC50 entry (in data set [1]; in data set [2]; in data set [3]; at Melanocortin receptor 5 (hek293); in data set [4]; in data set [5]) was “Not Active” in each case. Also, the IC50 result (on Progesterone receptor; in data set [6]) was “Not Active” throughout. For the same compound, the Ki entry in data set [3], in data set [4] and in data set [5] was “Not Active” throughout.

Take `Cc1ccnc2c1NC(=O)c1cccnc1N2C1CC1` [NEVIRAPINE]: the IC50 result (in data set [1]; in data set [2]; in data set [3]; on Melanocortin receptor 5 (hek293); in data set [4]; in data set [5]) was “Not Active” in each case. Further, the IC50 result (at Progesterone receptor; in data set [6]) was “Not Active” in each case. Further, the Ki result in data set [3], in data set [4] and in data set [5] was “Not Active” in each case.

Regarding `NCC(CC(=O)O)c1ccc(Cl)cc1` (stereo not drawn) [BACLOFEN], the IC50 result (in data set [1]; in data set [2]; in data set [3]; on Melanocortin receptor 5 (hek293); in data set [4]; in data set [5]) was “Not Active” in each case. For the same compound, the IC50 result (at Progesterone receptor; in data set [6]) was “Not Active” in each case. Also, the inhibition constant Ki entry in data set [3], in data set [4] and in data set [5] was “Not Active” each time.

With `CO[C@H]1O[C@@H]2O[C@@]3(C)CC[C@H]4[C@H](C)CC[C@@H]([C@H]1C)[C@@]24OO3`, the IC50 entry (in data set [1]; in data set [2]; in data set [3]; against Melanocortin receptor 5 (hek293); in data set [4]; in data set [5]) was “Not Active” in each case. Further, the IC50 entry (on Progesterone receptor; in data set [6]) was “Not Active” throughout. The Ki entry in data set [3], in data set [4] and in data set [5] was “Not Active” each time.

For `O=C(O)CNCP(=O)(O)O` [GLYPHOSATE], the IC50 entry (in data set [1]; in data set [2]; in data set [3]; against Melanocortin receptor 5 (hek293); in data set [4]; in data set [5]) was “Not Active” throughout. In addition, the half-maximal inhibitory concentration (IC50) entry (on Progesterone receptor; in data set [6]) was “Not Active” in each case. Moreover, the inhibition constant (Ki) entry in data set [3], in data set [4] and in data set [5] was “Not Active” in each case.
